Consider two compounds from patent US20090264384A1, “INDOLE, BENZIMIDAZOLE, AND BENZOLACTAM BORONIC ACID COMPOUNDS, ANALOGS THEREOF AND METHODS OF USE THEREOF” (Nuada, Inc., priority 2004, published 2009).

In data set [1] the test system is colitis provoked by trinitrobenzene sulphonic acid (TNBS). Kind of data set: Rat model of colitis provoked by TNBS, 3 days, treatment from Day −1 (CCI-7308). The format is in vivo. Conditions: vs CMC group. The text has this: In the study, colonic macroscopic injury has been assessed, as has colonic weight as a reflection of colonic oedema, along with determination of MPO activity (Bradley et al, 1982) as an index of white cell infiltration for the evaluation of tissue injury. The methods and protocol used were substantially similar to those in Example 39, with some differences described below. TNBS Challenge—Male Wistar rats (270-330 g) were randomised into groups of 10-11 before commencement of the study. The following primary parameters were measured in the study: In addition, the weight of the colonic segment was assessed as an indirect and non-specific marker of oedema. The body weight of the animals was also determined and expressed as % change from the day of challenge. Treatments. All challenged groups were dosed orally twice daily from Day −1. The groups for study were: Colon homogenates for cytokine measurements. […] Tissue homogenates were lysed for 30 min. on ice, and then centrifuged (10 min., 14, 000×g). The aliquots of the supernatant were stored at −20° C. until use (Ten Hove et al., 2001). Tumour Necrosis Factor-a Activity. The TNF-α levels were determined with quantitative TNF-α solid-phase Enzyme Linked ImmunoSorbent Assay (ELISA), which is based on the sandwich principle (HyCult biotechnology b. V;. Cat number: […] At the end of the ELISA assay, the samples were measured spectrophotometrically (Benchmark Microplate reader, Bio-Rad Lab; λ=450 nm). The samples were diluted 2 or 4 times with the sample buffer included in the kit. The TNF-α values were expressed as pg/mg protein. This commercially available kit (Hycult Biotechnology b.v. Uden, The Netherlands. Catalogue number: […]

Data set [2] addresses T1, AT1(h) (Homo sapiens, UniProt P30556).
T1 construct: expressed in transfected cells; host or cells: CHO cells
Put plainly: AT1(h) binding assay. As to conditions: read-out: % Inhibition of Control Specific Binding.

In data set [3] the target is HERG channel (Homo sapiens, UniProt Q12809). Put plainly: ADME-Tox: QT Prolongation, HERG (patch-clamp). On the technique in general: In patch-clamp work, channel activity is measured electrically.
Data set [4] deals with hERG (Homo sapiens, UniProt Q12809). Kind of data set: ADME-Tox: QT Prolongation, HERG (patch-clamp). Conditions: human, HEK-293 cells stably expressing HERG.
Data set [5] concerns Phosphodiesterase 1. Kind of data set: Phosphodiesterase 1 enzyme assay. Format: biochemical, bovine. Conditions: 1.0E−05 M.
The test system of data set [6] is GABA (non-selective). The format is binding, rat. Conditions: 1.0E−05 M.
Data set [7] has as its target T2, DA transporter(h) (Homo sapiens, UniProt Q01959).
T2 construct: expressed in transfected cells; host or cells: CHO cells
Kind of data set: DA transporter(h) binding assay. As to conditions: 1.0E−05 M; read-out: % Inhibition of Control Specific Binding.

For data set [8], the target named is T3, Glucocorticoid(h) (GR) (Homo sapiens, UniProt P04150).
T3 construct: Glucocorticoid(h); IM-9 cells; dexamethasone; Clark et al. (1996); endogenous in cells; host or cells: IM-9 cells (cytosol)
Put plainly: Glucocorticoid(h) (GR) binding assay. Conditions: 1.0E−05 M; read-out: % Inhibition of Control Specific Binding.

The target in data set [9] is T4, CCKA(h) (CCK1) (Homo sapiens, UniProt P32238).
T4 construct: expressed in transfected cells; host or cells: CHO cells
Kind of data set: CCKA(h) (CCK1) binding assay. Conditions: read-out: % Inhibition of Control Specific Binding.

Data set [10] deals with CYP2C19 (Homo sapiens, UniProt P33261). Put plainly: ADME-Tox: In vitro Metabolism (Cytochrome P450, fluorogenic substrates BFC, CEC, MFC). On the set-up: inhibition: dose or concentration left out as unconfirmed. As to conditions: human.
For data set [11], the target named is CYP2C9 (Homo sapiens, UniProt P11712). The data set is described as above. More on the design: inhibition: dose or concentration left out as unconfirmed. Conditions: human.
For data set [12], the target named is CYP3A4 (Homo sapiens, UniProt P08684). The data set is described as above. On the set-up: inhibition: dose or concentration left out as unconfirmed. Conditions: human.
Data set [13] has as its target CYP2D6 (Homo sapiens, UniProt P10635). Described as above. Conditions: human. On the set-up: inhibition: dose or concentration left out as unconfirmed.
For data set [14], the target named is CYP1A2 (Homo sapiens, UniProt P05177). The description is as above. As to conditions: human. On the set-up: inhibition: dose or concentration left out as unconfirmed.
The target in data set [15] is T5, ETA(h) (Homo sapiens, UniProt P25101).
T5 construct: expressed in transfected cells; host or cells: CHO cells
Kind of data set: ETA(h) binding assay. As to conditions: 1.0E−05 M; read-out: % Inhibition of Control Specific Binding.

The test system of data set [16] is Ca^2+ channel (L, verapamil site) (phenylalkylamines). Kind of data set: Ca^2+ channel (L, verapamil site) binding assay. On the set-up: species or system rat. Conditions: 1.0E−05 M.
For data set [17], the target named is T6, NE transporter(h) (Homo sapiens, UniProt P23975).
T6 construct: expressed in transfected cells; host or cells: MDCK cells
Kind of data set: NE transporter(h) binding assay. Conditions: read-out: % Inhibition of Control Specific Binding.

Data set [18] deals with Progesterone(h) (PR). Put plainly: Progesterone(h) (PR) binding assay. On the set-up: species or system human. As to conditions: 1.0E−05 M.
Data set [19] has as its system TNF-α production by PMBC. Put plainly: Inhibition of TNF-α Production By Peripheral Blood Monocyte Cells (PMBC), LPS stimulated. The format is cell-based. As to conditions: 1 ug/mL LPS, 24 hours. How it is done: PMBC in RPMI 1640 Cell Culture Medium (containing 1% Penicillin and 1% Streptomycin) are aliquoted into 96-well plates at 5×10^5 cells/well and pre-incubated with test compounds for 30 minutes at 37° C. After incubation, 1 ug/mL LPS is added to each well to stimulate TNF-α production and the plate is incubated for 24 hours at 37° C. After incubation, the supernatant is removed and the TNF-α secreted is quantified using EIA detection kits commercially available from R&D Systems (USA). The results from this assay are expressed as percent inhibition of control activity, with the control being stimulated wells with no test compound. Dexamethasone is used as a standard reference compound in the assay and is tested with each experiment. All test compounds are diluted from 10 mM stock solutions in 100% DMSO.

Setting [20] is: 50 mg/kg/day p.o. in divided doses.

Sequence of HERG channel (Q12809 whole entry): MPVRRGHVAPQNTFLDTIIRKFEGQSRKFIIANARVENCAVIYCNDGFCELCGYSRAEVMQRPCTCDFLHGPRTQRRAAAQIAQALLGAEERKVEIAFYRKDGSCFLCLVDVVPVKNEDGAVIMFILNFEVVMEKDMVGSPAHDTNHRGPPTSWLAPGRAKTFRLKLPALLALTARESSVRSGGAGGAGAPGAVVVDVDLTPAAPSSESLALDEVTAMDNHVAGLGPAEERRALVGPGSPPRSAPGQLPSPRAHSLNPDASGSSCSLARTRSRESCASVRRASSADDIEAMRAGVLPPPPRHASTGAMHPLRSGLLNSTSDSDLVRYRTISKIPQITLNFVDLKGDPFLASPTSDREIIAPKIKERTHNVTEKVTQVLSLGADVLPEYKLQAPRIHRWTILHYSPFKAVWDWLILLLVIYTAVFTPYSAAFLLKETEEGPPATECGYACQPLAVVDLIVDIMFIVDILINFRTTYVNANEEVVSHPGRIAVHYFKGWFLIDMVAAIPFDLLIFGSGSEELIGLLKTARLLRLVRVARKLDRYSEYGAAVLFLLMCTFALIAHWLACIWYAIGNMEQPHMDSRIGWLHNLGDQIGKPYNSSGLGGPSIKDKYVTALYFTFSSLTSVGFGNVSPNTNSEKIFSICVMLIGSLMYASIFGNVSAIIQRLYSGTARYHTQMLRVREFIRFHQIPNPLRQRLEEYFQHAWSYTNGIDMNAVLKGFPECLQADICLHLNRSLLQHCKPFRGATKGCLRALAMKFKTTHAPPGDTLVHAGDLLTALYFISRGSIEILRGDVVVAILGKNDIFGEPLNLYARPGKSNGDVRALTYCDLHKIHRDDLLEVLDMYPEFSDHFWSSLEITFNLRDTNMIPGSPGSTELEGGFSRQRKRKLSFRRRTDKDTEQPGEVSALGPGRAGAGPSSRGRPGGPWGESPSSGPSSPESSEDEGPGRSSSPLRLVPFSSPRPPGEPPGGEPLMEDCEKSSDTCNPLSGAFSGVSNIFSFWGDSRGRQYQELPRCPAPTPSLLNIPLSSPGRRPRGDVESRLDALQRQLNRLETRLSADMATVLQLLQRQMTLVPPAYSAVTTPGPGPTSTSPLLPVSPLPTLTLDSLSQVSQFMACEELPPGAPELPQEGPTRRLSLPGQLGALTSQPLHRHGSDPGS
Sequence of CYP1A2 (P05177 whole entry): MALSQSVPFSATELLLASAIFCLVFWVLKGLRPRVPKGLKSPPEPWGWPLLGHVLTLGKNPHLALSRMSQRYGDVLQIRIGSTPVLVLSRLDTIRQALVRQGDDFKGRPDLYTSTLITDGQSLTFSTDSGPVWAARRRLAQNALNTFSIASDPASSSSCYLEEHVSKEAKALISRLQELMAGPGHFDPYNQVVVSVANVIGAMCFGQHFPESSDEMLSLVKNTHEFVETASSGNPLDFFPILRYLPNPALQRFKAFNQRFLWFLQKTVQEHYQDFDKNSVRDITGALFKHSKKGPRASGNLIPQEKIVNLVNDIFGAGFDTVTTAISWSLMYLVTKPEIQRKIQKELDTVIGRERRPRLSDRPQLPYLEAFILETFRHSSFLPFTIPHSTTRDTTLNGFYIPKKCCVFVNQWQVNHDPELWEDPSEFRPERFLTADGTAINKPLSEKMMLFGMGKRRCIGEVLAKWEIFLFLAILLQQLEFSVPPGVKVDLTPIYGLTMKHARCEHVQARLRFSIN
T2 sequence (Q01959 whole entry): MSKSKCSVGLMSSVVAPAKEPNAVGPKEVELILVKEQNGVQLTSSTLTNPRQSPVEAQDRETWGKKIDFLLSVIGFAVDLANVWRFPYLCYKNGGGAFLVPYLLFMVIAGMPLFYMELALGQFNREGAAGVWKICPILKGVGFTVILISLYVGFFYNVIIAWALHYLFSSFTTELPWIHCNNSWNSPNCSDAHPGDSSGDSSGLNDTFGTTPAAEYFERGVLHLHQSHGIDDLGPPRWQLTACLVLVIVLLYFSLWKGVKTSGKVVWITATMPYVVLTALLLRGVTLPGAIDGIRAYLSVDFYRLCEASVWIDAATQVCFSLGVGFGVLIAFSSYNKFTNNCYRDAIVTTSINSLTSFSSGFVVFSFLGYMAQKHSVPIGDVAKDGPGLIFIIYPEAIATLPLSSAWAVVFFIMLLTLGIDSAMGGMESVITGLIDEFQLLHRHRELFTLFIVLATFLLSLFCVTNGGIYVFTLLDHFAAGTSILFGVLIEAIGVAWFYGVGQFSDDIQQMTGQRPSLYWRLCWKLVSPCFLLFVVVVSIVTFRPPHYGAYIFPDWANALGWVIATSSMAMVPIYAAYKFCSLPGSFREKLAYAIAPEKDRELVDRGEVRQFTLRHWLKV
Sequence of CYP2C9 (P11712 whole entry): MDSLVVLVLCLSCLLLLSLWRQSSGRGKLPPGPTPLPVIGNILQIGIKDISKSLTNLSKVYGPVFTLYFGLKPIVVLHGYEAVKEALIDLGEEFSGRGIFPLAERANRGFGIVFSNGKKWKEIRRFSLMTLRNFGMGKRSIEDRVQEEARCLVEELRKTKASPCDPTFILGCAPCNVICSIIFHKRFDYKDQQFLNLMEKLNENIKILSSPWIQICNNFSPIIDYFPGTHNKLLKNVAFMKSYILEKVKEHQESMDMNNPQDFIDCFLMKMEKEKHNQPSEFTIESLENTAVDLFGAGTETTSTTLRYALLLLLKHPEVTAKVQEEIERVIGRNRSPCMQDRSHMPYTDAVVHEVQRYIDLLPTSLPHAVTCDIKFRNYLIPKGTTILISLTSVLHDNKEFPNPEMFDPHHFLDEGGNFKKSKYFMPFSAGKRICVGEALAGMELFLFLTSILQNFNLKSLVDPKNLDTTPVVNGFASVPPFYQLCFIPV
T1 sequence (P30556 whole entry): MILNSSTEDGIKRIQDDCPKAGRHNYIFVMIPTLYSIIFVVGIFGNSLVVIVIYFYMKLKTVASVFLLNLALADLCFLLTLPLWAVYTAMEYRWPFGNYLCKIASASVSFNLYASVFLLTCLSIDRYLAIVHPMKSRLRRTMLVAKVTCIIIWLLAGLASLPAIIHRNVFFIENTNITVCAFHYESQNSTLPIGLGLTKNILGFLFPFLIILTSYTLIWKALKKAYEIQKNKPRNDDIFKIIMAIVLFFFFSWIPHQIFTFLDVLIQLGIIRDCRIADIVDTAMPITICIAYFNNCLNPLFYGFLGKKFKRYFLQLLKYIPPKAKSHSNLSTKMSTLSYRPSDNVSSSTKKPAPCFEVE
T6 sequence (P23975 whole entry): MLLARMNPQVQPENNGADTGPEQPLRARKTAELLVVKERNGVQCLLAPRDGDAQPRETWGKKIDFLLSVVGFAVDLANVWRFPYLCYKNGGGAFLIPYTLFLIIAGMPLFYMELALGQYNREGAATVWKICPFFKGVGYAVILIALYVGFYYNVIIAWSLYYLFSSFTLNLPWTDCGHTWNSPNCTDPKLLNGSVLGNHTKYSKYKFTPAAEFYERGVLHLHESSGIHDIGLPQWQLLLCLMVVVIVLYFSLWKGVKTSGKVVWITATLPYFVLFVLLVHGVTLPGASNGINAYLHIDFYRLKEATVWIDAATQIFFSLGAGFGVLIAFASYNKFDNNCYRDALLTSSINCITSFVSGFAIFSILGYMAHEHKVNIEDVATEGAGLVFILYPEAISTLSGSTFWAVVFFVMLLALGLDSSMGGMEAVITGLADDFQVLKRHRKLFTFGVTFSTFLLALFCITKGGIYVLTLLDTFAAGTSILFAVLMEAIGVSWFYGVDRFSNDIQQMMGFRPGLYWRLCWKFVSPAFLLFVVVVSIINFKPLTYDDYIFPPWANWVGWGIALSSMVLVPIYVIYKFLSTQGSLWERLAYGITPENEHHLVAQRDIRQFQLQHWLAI
Sequence of CYP3A4 (P08684 whole entry): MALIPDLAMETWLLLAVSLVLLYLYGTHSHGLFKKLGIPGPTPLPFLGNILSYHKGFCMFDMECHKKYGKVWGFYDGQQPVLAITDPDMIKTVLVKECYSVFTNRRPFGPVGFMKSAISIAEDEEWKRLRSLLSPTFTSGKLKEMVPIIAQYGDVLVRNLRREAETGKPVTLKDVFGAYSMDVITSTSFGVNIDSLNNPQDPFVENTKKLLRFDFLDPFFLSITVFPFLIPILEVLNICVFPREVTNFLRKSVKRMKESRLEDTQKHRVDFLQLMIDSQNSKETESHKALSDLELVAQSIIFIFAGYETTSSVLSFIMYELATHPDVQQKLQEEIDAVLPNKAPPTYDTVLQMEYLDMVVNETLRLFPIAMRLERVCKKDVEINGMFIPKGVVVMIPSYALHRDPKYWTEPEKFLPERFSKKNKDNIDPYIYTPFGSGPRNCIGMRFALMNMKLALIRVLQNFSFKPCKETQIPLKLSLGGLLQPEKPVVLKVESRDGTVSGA
Sequence of CYP2D6 (P10635 whole entry): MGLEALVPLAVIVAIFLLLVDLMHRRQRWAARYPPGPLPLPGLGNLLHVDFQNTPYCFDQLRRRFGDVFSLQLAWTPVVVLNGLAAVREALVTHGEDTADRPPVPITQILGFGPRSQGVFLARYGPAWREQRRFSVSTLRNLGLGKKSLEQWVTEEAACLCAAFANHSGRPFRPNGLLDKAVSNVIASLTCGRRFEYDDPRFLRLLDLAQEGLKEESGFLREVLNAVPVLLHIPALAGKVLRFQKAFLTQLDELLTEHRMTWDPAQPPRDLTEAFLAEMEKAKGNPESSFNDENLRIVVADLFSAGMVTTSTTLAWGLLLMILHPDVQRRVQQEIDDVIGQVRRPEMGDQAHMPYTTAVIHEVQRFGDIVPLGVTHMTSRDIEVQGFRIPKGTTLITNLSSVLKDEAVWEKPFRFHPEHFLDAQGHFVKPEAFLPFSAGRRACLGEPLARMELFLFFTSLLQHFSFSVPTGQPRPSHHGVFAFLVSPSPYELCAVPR

As to `O=C(O)c1cc(/N=N/c2ccc(S(=O)(=O)Nc3ccccn3)cc2)ccc1O` [sulfasalazine, reference compound], in [1] (50 mg/kg/day p.o. in divided doses b.i.d.), the “attenuation of TNBS-induced fall in body weight (% change in body weight at Day 0)” value is “reached statistical significance at Day 1, 2 and 3”. In addition, the “reduction in area of macroscopic colonic injury” value in data set [1] (50 mg/kg/day p.o. in divided doses, 72 h after TNBS) is recorded as “significantly (P<0.001) reduced the extent of macroscopic injury”. In [1] (setting [20]), the “reduction in colon weight” value was “significant (P<0.05) reduction in colon weight”, the “reduction in colonic MPO activity” value is recorded as “significantly reduced the elevated colonic levels of MPO” and the “reduction in colonic TNF-α levels” value is reported as “significantly reduced the elevated colonic levels of TNF-α”.
The inhibition is the drop in the measured response relative to a control, in per cent. As a reminder, the IC50 is the point on the concentration scale where inhibition reaches its midpoint. `N#Cc1ccc2c(ccn2CCCCCB(O)O)c1` [Example 20, 5-(5-cyano-1H-indol-1-yl)pentylboronic acid]: the inhibition at 10 µM in [2] is -3%; in data set [7], 47%; in data set [8] it was -7%; in data set [9], 7%; in data set [15] it was -25%; in data set [17], 15%. Moreover, the “Potency Ranking” value in data set [3] (HERG-channel blocker ranking, from 1 μM test (Table 17)) is on record as “Moderate (Moderate, 1 μM<IC50<10 μM)”. The “HERG-channel blocker potency class” value in data set [3] (general potency ranking system (Roche et al.)) was “moderate”. The inhibition at 1 µM in data set [4] is 31.1%. Besides, in data set [5], the “% Inhibition of Control Values” was determined as 7%. In addition, the results for the “% Inhibition of Control Specific Binding” value in data set [6], in [16] and in data set [18] were −15%, −12% and 79%, respectively. Further, the inhibition in [10] stood at 52%; in [11], 73%; in data set [12], 97%; in data set [13], 42%; in data set [14], 40%. In data set [19], this compound displayed an IC50 of 750 nM.
